US9446047B2, “Substituted 2,3-dihydro-1H-inden-1-one retinoic acid-related orphan nuclear receptor antagonists for treating multiple sclerosis” (Arrien Pharmaceuticals LLC, priority 2013, dated 2016)

Key:
[1] = molecular target: T1, RORγ-LBD (RORγt) (Homo sapiens, UniProt P51449); assay: TR-FRET RORγt Binding Assay; settings: 6-His(GST)RORγ-LBD, SRC1_2 peptide, read-out: RORγt Binding
T1 construct: the 6-His-(GST) RORγ-LBD was used which expressed and purified from baculovirus infected Sf-21 insect cells; made in house; host or cells: baculovirus-infected Sf-21 insect cells
T1 sequence (P51449 269-508 limits assumed): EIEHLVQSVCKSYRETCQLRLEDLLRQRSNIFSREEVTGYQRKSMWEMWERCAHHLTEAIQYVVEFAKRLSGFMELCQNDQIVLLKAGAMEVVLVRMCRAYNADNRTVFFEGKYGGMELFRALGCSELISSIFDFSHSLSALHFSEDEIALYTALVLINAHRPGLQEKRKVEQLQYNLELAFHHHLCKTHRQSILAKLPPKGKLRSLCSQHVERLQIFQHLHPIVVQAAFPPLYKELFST
Description: TR-FRET RORγt Binding Assay: RORγ-LBD contains a 6-His and GST tag peptide from SRC1-2 an aminoterminal biotinyl-[…] was employed and the 6-His-(GST) RORγ-LBD was used which expressed and purified from baculovirus infected Sf-21 insect cells from Invitrogen and purified using glutathione sepharose. […] The peptide binding due to dose-curves of compounds was added the 0.1% DMSO. Fluorescence at wavelength 340 nm was read in each well of […] using an Envision fluorescence reader in Time Resolved mode after overnight incubation at 4° C.

[2] = molecular target: T2, RORγt (Homo sapiens, UniProt P51449); assay: RORγt-activated IL-17A Prom/LUCPorter HEK 293 cells luciferase reporter assay; format: cell-based; settings: IL-17A Prom/LUCPorter HEK 293 cells transfected with RORγt, 16 h; read-out: RORγt Cell Specific
T2 construct: host or cells: IL-17A Prom/LUCPorter HEK 293 cell line (IMGENEX, IML-301)
T2 sequence (P51449 1-497 isoform P51449-2): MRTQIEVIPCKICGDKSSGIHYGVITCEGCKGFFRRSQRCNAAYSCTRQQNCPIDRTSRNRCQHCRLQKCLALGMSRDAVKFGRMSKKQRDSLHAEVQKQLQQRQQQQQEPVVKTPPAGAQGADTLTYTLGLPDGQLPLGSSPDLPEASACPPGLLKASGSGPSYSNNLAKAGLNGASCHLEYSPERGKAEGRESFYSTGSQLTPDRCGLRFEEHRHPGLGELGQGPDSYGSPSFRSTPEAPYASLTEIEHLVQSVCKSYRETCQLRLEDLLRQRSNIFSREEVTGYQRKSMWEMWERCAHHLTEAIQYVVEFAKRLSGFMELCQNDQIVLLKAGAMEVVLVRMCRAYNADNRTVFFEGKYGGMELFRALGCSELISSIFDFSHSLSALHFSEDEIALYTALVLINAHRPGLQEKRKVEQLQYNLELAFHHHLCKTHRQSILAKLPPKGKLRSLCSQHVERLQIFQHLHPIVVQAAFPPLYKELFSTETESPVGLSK
Description: Antagonistic (or inverse agonistic) effects of the test compounds on the RORγt-activated IL-17A Prom/LUCPorter™ HEK 293 cells were analyzed and IC50 of each compound was evaluated. […] Luciferase activity was analyzed using the luciferase reporter assay reagent (IMGENEX, LS100). The data were analyzed using Excel and Prism software. Percent activity was defined as 100×(1−(Well−Control A)/(Control B−Control A)), where Control A was the wells containing cells transfected with RORγt and Control B was the wells containing non-transfected cells. Both Controls A and B were treated with vehicle alone.

[3] = test system: IL-17 release from CD4+ T cells; assay: Cytokine IL-17 estimation by HTRF, IL-17 release from CD4+ T cells; format: cell-based; settings: Homo sapiens, IL-17 release from CD4+ T cells, HTRF, read-out: IL-17 Inhibition
Text: The assay was designed to assess the potency of test compounds on IL-17 cytokine release from CD4+ T cells. In order to aid in the identification of potent inhibitors, the IC50's determined for the test compounds IL-17 release from CD4+ T cells through the generation of 10 point Dose Response Curves (DRC). Assay methods used to quantify IL-17 secretion is HTRF (Homogenous Time Resolved Fluorescence). IL-17 secreted is detected by anti-IL-17 MAb labeled with XL665, the second MAb labeled with Cryptate, which binds to specific epitopes of human IL-17. Upon close proximity of both acceptor and donor energy transfer (FRET) occurs. This technique has been further enhanced by using long-lived labels combined with the detection on a time-resolved fluorescence basis, allowing […] of prompt fluorescence interferences.
The assay was performed according to manufacturer's instruction. All the reagents were reconstituted according to instructions provided. The reagents were dispensed into a half area 96-well plate in the following order: […] or sample, IL-17 MAbXL665 and 5 μL IL-17 Cryptate. For the negative control, the standard or sample is replaced by […]. The plate is covered with a plate sealer and incubated at rt for 2 h. Following incubation, the plate sealer is removed and the plate is read using HTRF protocol on Envision Microplate reader. All of the data analysis was carried out using Microsoft Excel (2010) and IC50 was determined using GraphPad Prism 4 software. % Inhibition of the test compounds were determined utilizing the following formula: % Inhibition=100−(100*(Average Test Compound Counts−Average Negative Control Counts)/(Average Positive Control Counts−Average Negative Control Counts)).
We have established robust in vitro cell-based HTRF assay for the activation and stimulation of CD4+ T lymphocytes to T helper 17 (Th17) cell differentiation and IL-17 production.

SMILES: COc1cc2c(cc1N1CCOCC1)CC(Cc1ccc(SC(F)(F)F)cc1)C2=O (stereo not drawn) [compound 74, 6-methoxy-5-morpholino-2-(4-((trifluoromethyl)thio)benzyl)-2,3-dihydro-1H-inden-1-one]
- IC50 [1]: > 10000 nM
- IC50 [2]: > 10000 nM
- IC50 [3]: > 1000 nM

SMILES: COc1cc2c(cc1N1CCOCC1)CC(Cc1cc(C(F)(F)F)ccc1F)C2=O (stereo not drawn) [compound 77, 2-(2-fluoro-5-(trifluoromethyl)benzyl)-6-methoxy-5-morpholino-2,3-dihydro-1H-inden-1-one]
- IC50 [1]: > 1000 nM
- IC50 [2]: > 1000 nM
- IC50 [3]: > 1000 nM

SMILES: COc1cc2c(cc1N1CCOCC1)CC(Cc1cccc(C(F)(F)F)c1F)C2=O (stereo not drawn) [compound 80]
- IC50 [1]: > 1000 nM
- IC50 [2]: > 1000 nM
- IC50 [3]: > 1000 nM

SMILES: COc1cc2c(cc1N1CCOCC1)CC(Cc1ccc(C(F)(F)F)cc1)C2=O (stereo not drawn) [compound 86]
- IC50 [1]: > 1000 nM
- IC50 [2]: > 1000 nM
- IC50 [3]: > 1000 nM

SMILES: COc1cc2c(cc1N1CCOCC1)CC(Cc1ccc(Cl)c(C(F)(F)F)c1)C2=O (stereo not drawn) [compound 89]
- IC50 [1]: > 1000 nM
- IC50 [2]: > 1000 nM
- IC50 [3]: < 500 nM

SMILES: COc1cc2c(cc1N1CCOCC1)CC(Cc1ccc(C(F)(F)F)c(Cl)c1)C2=O (stereo not drawn) [compound 92]
- IC50 [1]: > 1000 nM
- IC50 [2]: > 1000 nM
- IC50 [3]: > 1000 nM

SMILES: COc1cc2c(cc1N1CCOCC1)CC(Cc1cc(C)n[nH]1)C2=O (stereo not drawn) [compound 95]
- IC50 [1]: > 1000 nM
- IC50 [2]: > 1000 nM
- IC50 [3]: > 1000 nM

SMILES: COc1cc2c(cc1N1CCN(C)CC1)CC(Cc1cccc(C(F)(F)F)c1)C2=O (stereo not drawn) [compound 103, 6-methoxy-5-(4-methylpiperazin-1-yl)-2-(3-(trifluoromethyl)benzyl)-2,3-dihydro-1H-inden-1-one]
- IC50 [1]: < 500 nM
- IC50 [2]: > 1000 nM
- IC50 [3]: > 1000 nM

SMILES: COc1cc2c(cc1N1CCN(C)CC1)CC(Cc1ccc(SC(F)(F)F)cc1)C2=O (stereo not drawn) [compound 106]
- IC50 [1]: < 500 nM
- IC50 [2]: > 1000 nM
- IC50 [3]: > 1000 nM

SMILES: COc1cc2c(cc1N1CCN(C)CC1)CC(Cc1cccc(C(F)(F)F)c1Cl)C2=O (stereo not drawn) [compound 110, 2-(2-chloro-3-(trifluoromethyl)benzyl)-6-methoxy-5-(4-methylpiperazin-1-yl)-2,3-dihydro-1H-inden-1-one]
- IC50 [1]: < 500 nM
- IC50 [2]: < 500 nM
- IC50 [3]: > 1000 nM

SMILES: COc1cc2c(cc1N1CCN(C)CC1)CC(Cc1ncccc1C(F)(F)F)C2=O (stereo not drawn) [compound 113]
- IC50 [1]: < 500 nM
- IC50 [2]: < 500 nM
- IC50 [3]: > 1000 nM

SMILES: COc1cc2c(cc1N1CCNCC1)CC(Cc1ccc(SC(F)(F)F)cc1)C2=O (stereo not drawn) [compound 117]
- IC50 [1]: < 500 nM
- IC50 [2]: > 1000 nM
- IC50 [3]: > 1000 nM

SMILES: COc1cc2c(c(N3CCOCC3)c1OC)CC(Cc1ncccc1C(F)(F)F)C2=O (stereo not drawn) [compound 123, 5,6-dimethoxy-4-morpholino-2-((3-(trifluoromethyl)pyridin-2-yl)methyl)-2,3-dihydro-1H-inden-1-one]
- IC50 [1]: > 1000 nM
- IC50 [2]: > 1000 nM
- IC50 [3]: > 1000 nM

SMILES: COc1cc2c(c(N3CCN(C)CC3)c1OC)CC(Cc1ccc(SC(F)(F)F)cc1)C2=O (stereo not drawn) [compound 125, 5,6-dimethoxy-4-(4-methylpiperazin-1-yl)-2-(4-((trifluoromethyl)thio)benzyl)-2,3-dihydro-1H-inden-1-one]
- IC50 [1]: > 1000 nM
- IC50 [2]: > 1000 nM
- IC50 [3]: > 1000 nM

SMILES: COc1cc2c(c(N3CCN(C)CC3)c1OC)CC(Cc1ncccc1C(F)(F)F)C2=O (stereo not drawn) [compound 128, 5,6-dimethoxy-4-(4-methylpiperazin-1-yl)-2-((3-(trifluoromethyl)pyridin-2-yl)methyl)-2,3-dihydro-1H-inden-1-one]
- IC50 [1]: > 1000 nM
- IC50 [2]: > 1000 nM
- IC50 [3]: > 1000 nM

SMILES: COc1cc2c(c(N3CCC(C)CC3)c1OC)CC(Cc1ccc(SC(F)(F)F)cc1)C2=O (stereo not drawn) [compound 131, 5,6-dimethoxy-4-(4-methylpiperidin-1-yl)-2-(4-((trifluoromethyl)thio)benzyl)-2,3-dihydro-1H-inden-1-one]
- IC50 [1]: > 1000 nM
- IC50 [2]: > 1000 nM
- IC50 [3]: > 1000 nM

SMILES: COc1cc2c(c(N3CCC(C)CC3)c1OC)CC(Cc1ncccc1C(F)(F)F)C2=O (stereo not drawn) [compound 133, 5,6-dimethoxy-4-(4-methylpiperidin-1-yl)-2-((3-(trifluoromethyl)pyridin-2-yl)methyl)-2,3-dihydro-1H-inden-1-one]
- IC50 [1]: > 1000 nM
- IC50 [2]: > 1000 nM
- IC50 [3]: > 1000 nM

SMILES: COc1cc2c(cc1N1CCC(C)CC1)CC(Cc1ccc(SC(F)(F)F)cc1)C2=O (stereo not drawn) [compound 140]
- IC50 [1]: < 500 nM
- IC50 [2]: > 1000 nM
- IC50 [3]: > 10000 nM

SMILES: COc1cc2c(cc1N1CCC(C)CC1)CC(Cc1ncccc1C(F)(F)F)C2=O (stereo not drawn) [compound 142]
- IC50 [1]: > 1000 nM
- IC50 [2]: > 1000 nM
- IC50 [3]: < 500 nM

SMILES: COc1cc2c(cc1NC1CCN(C)CC1)CC(Cc1ccc(SC(F)(F)F)cc1)C2=O (stereo not drawn) [compound 144]
- IC50 [1]: > 1000 nM
- IC50 [2]: > 1000 nM
- IC50 [3]: > 1000 nM

SMILES: COc1cc2c(cc1NC1CCN(C)CC1)CC(Cc1ncccc1C(F)(F)F)C2=O (stereo not drawn) [compound 146]
- IC50 [1]: > 1000 nM
- IC50 [2]: > 1000 nM
- IC50 [3]: < 500 nM

SMILES: COc1cc2c(cc1N1CCC(F)CC1)CC(Cc1ccc(SC(F)(F)F)cc1)C2=O (stereo not drawn) [compound 149, 5-(4-fluoropiperidin-1-yl)-6-methoxy-2-(4-((trifluoromethyl)thio)benzyl)-2,3-dihydro-1H-inden-1-one]
- IC50 [1]: < 500 nM
- IC50 [2]: > 10000 nM
- IC50 [3]: > 1000 nM

SMILES: COc1cc2c(cc1N1CCC(F)CC1)CC(Cc1ncccc1C(F)(F)F)C2=O (stereo not drawn) [compound 151, 5-(4-fluoropiperidin-1-yl)-6-methoxy-2-((3-(trifluoromethyl)pyridin-2-yl)methyl)-2,3-dihydro-1H-inden-1-one]
- IC50 [1]: > 1000 nM
- IC50 [2]: > 1000 nM
- IC50 [3]: > 1000 nM

SMILES: COc1cc2c(cc1N1CCC(C)CC1)CC(Cc1cccc(C(F)(F)F)c1)C2=O (stereo not drawn) [compound 154]
- IC50 [1]: > 1000 nM
- IC50 [2]: > 1000 nM
- IC50 [3]: < 500 nM

SMILES: COc1cc2c(cc1N1CCOCC1)CC(Cc1cc(C(F)(F)F)ccc1Cl)C2=O (stereo not drawn) [compound 158]
- IC50 [1]: < 500 nM
- IC50 [2]: > 1000 nM
- IC50 [3]: < 500 nM

SMILES: COc1cc2c(cc1N1CCN(C)CC1)CC(Cc1cc(C(F)(F)F)ccc1Cl)C2=O (stereo not drawn) [compound 161, 2-(2-chloro-5-(trifluoromethyl)benzyl)-6-methoxy-5-(4-methylpiperazin-1-yl)-2,3-dihydro-1H-inden-1-one]
- IC50 [1]: > 1000 nM
- IC50 [2]: < 500 nM
- IC50 [3]: > 1000 nM

SMILES: COc1cc2c(cc1N1CCNCC1)CC(Cc1ncccc1C(F)(F)F)C2=O (stereo not drawn) [compound 164]
- IC50 [1]: < 500 nM
- IC50 [2]: > 1000 nM
- IC50 [3]: < 500 nM

SMILES: COc1ccc2c(c1OC)CC(Cc1ccc(SC(F)(F)F)cc1)C2=O (stereo not drawn) [compound 167]
- IC50 [1]: > 1000 nM
- IC50 [2]: > 1000 nM
- IC50 [3]: < 500 nM
